Assay results reported in ChEMBL document CHEMBL1201862, “PubChem BioAssay data set” (2004).
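Exposure lasted 48 hours, with cells grown in 96-well plates and compounds tested at five concentrations. At the GI50, growth is halved.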 Active and inactive are the calls of the source. No stated cut-off is given here; in the data, active = GI50 up to about 1.1 µM and inactive = higher.

What was measured:
Assay in all cases: NCI tumour cell line growth inhibition, 48 h
HCT-15 = system: HCT-15
MDA-MB-231 = system: MDA-MB-231
UO-31 = system: UO-31
CAKI-1 = system: CAKI-1
SK-MEL-2 = system: SK-MEL-2
SF-539 = system: SF-539
TK-10 = system: TK-10
HOP-62 = system: HOP-62
SF-268 = system: SF-268
NCI/ADR-RES = system: NCI/ADR-RES
PC-3 = system: PC-3
SK-MEL-28 = system: SK-MEL-28
OVCAR-4 = system: OVCAR-4
RPMI-8226 = system: RPMI-8226
DU-145 = system: DU-145
LOX IMVI = system: LOX IMVI
SR = system: SR
U-251 = system: U-251
NCI-H522 = system: NCI-H522
MOLT-4 = system: MOLT-4
HCT-116 = system: HCT-116
Hs-578T = system: Hs-578T
UACC-62 = system: UACC-62
OVCAR-5 = system: OVCAR-5
SK-MEL-5 = system: SK-MEL-5
RXF 393 = system: RXF 393
SW-620 = system: SW-620
786-0 = system: 786-0
COLO 205 = system: COLO 205
A549 = system: A549
SN12C = system: SN12C
SK-OV-3 = system: SK-OV-3
SF-295 = system: SF-295
MCF7 = system: MCF7
MDA-N = system: MDA-N
IGROV-1 = system: IGROV-1
NCI-H226 = system: NCI-H226
SNB-19 = system: SNB-19
NCI-H23 = system: NCI-H23
NCI-H460 = system: NCI-H460
K562 = system: K562
HT-29 = system: HT-29
CCRF-CEM = system: CCRF-CEM
HCC 2998 = system: HCC 2998
EKVX = system: EKVX
OVCAR-3 = system: OVCAR-3
SNB-75 = system: SNB-75
MDA-MB-435 = system: MDA-MB-435
T47D = system: T47D
UACC-257 = system: UACC-257
OVCAR-8 = system: OVCAR-8
ACHN = system: ACHN
KM12 = system: KM12
M14 = system: M14
Malme-3M = system: Malme-3M
HOP-92 = system: HOP-92
HL-60 = system: HL-60
A498 = system: A498

Measured: GI50

O=C(c1ccccc1)c1ccc(COc2ccc(C(c3c(O)c4ccccc4oc3=O)c3c(O)c4ccccc4oc3=O)cc2)cc1
37.3 µM: HCT-15
inactive: MDA-MB-231 34.3 µM | UO-31 27.7 µM | CAKI-1 22.8 µM | SK-MEL-2 18.2 µM | SF-539 23.9 µM | TK-10 17.1 µM | HOP-62 20.5 µM | SF-268 31.9 µM | NCI/ADR-RES 19.5 µM | PC-3 18.3 µM | SK-MEL-28 17.9 µM | OVCAR-4 30.2 µM | RPMI-8226 12.5 µM | DU-145 59.8 µM | LOX IMVI 23.9 µM | SR 35.9 µM | U-251 89.3 µM | NCI-H522 18.2 µM | MOLT-4 18.7 µM | HCT-116 33.3 µM | Hs-578T 29.4 µM | UACC-62 14 µM | OVCAR-5 18.9 µM | SK-MEL-5 18.8 µM | RXF 393 19 µM | SW-620 25.7 µM | 786-0 23.6 µM | COLO 205 20.2 µM | A549 26.2 µM | SN12C 43.8 µM | SK-OV-3 19.2 µM | SF-295 19.4 µM | MCF7 27.8 µM | MDA-N 26.5 µM | IGROV-1 13.5 µM | SNB-19 23.4 µM | NCI-H23 17.4 µM | NCI-H460 19.9 µM | K562 19.9 µM | HT-29 18.3 µM | CCRF-CEM 3.84 µM | HCC 2998 18.5 µM | EKVX 19.8 µM | OVCAR-3 18.9 µM | SNB-75 18.5 µM | MDA-MB-435 20.2 µM | T47D 20.5 µM | UACC-257 19.4 µM | OVCAR-8 17.2 µM | ACHN 19.3 µM | KM12 16.1 µM
active: NCI-H226 0.173 µM

Clc1ccc(C2=NNC(c3cccc(Cl)c3)C2)cc1 (stereo unspecified)
active: SK-MEL-2 0.362 µM | IGROV-1 0.344 µM
inactive: MDA-MB-231 18.7 µM | UO-31 1.9 µM | CAKI-1 26.2 µM | SF-539 37.2 µM | TK-10 26.4 µM | M14 53.7 µM | HOP-62 32.2 µM | SF-268 29.3 µM | NCI/ADR-RES 26.5 µM | PC-3 24.9 µM | OVCAR-4 32.8 µM | Malme-3M 28.1 µM | RPMI-8226 17.1 µM | DU-145 36.9 µM | LOX IMVI 16 µM | SR 41.9 µM | U-251 16.5 µM | NCI-H522 2.98 µM | MOLT-4 27.1 µM | HCT-116 26.7 µM | Hs-578T 28.8 µM | UACC-62 28.8 µM | OVCAR-5 44.8 µM | SK-MEL-5 14.8 µM | RXF 393 31.3 µM | SW-620 23.2 µM | 786-0 28.3 µM | HOP-92 10.8 µM | COLO 205 15.9 µM | A549 23.2 µM | SN12C 21.4 µM | SK-OV-3 22 µM | SF-295 29.1 µM | MCF7 17.4 µM | MDA-N 21.1 µM | HL-60 34.5 µM | NCI-H226 35.6 µM | SNB-19 34.4 µM | NCI-H23 25.8 µM | NCI-H460 28.5 µM | K562 37.4 µM | HT-29 36.9 µM | CCRF-CEM 29 µM | EKVX 23.4 µM | OVCAR-3 28.6 µM | SNB-75 26.8 µM | MDA-MB-435 17.9 µM | T47D 44.6 µM | UACC-257 32.3 µM | KM12 35.9 µM | A498 20 µM

O=C1c2ccccc2-c2cc3ccccc3c(=O)n21
> 100 µM: HCT-15
inactive: UO-31 49.1 µM | SK-MEL-2 > 100 µM | SF-539 > 100 µM | TK-10 > 100 µM | M14 97.3 µM | SF-268 > 100 µM | NCI/ADR-RES > 100 µM | PC-3 > 100 µM | SK-MEL-28 > 100 µM | RPMI-8226 71.1 µM | DU-145 > 100 µM | LOX IMVI > 100 µM | SR > 100 µM | NCI-H522 15.5 µM | HCT-116 > 100 µM | Hs-578T > 100 µM | UACC-62 > 100 µM | OVCAR-5 > 100 µM | SK-MEL-5 > 100 µM | SW-620 > 100 µM | 786-0 68.5 µM | COLO 205 > 100 µM | A549 > 100 µM | SN12C > 100 µM | SF-295 > 100 µM | MCF7 29 µM | MDA-N > 100 µM | IGROV-1 > 100 µM | SNB-19 > 100 µM | NCI-H23 > 100 µM | NCI-H460 > 100 µM | K562 > 100 µM | HT-29 > 100 µM | CCRF-CEM > 100 µM | HCC 2998 > 100 µM | EKVX > 100 µM | OVCAR-3 > 100 µM | SNB-75 > 100 µM | MDA-MB-435 > 100 µM | T47D > 100 µM | UACC-257 > 100 µM | OVCAR-8 > 100 µM | ACHN > 100 µM | KM12 > 100 µM
